This is an account of results in patent publication US20220169628A1 (University of Florida Research Foundation, Incorporated, priority 2019, published 2022).

SMILES strings stand for the structures. Bounds are passed on as bounds.

The test system of one test is RS4;11 cells. Put plainly: Cell viability assay, MTS, 48 h, RS4;11. It is filed as cell-based. The following applies: Homo sapiens, RS4-11, 48 h, 48 hours, read-out: IC50 (48 hours) RS4;11. As for the experimental part:
(§1) Acute lymphoblastic leukemia cells (MOLT-4 and RS4; 11) or small cell lung cancer (NCI-H146 or simply H146) were incubated with increasing concentrations of Bcl-xL degraders for 48 h. Cell viability was measured by tetrazolium-based MTS assay.

A further test has as its system MOLT-4 cells. Put plainly: Cell viability assay, MTS, 48 h, MOLT-4. Particulars: Homo sapiens, MOLT-4, 48 h, 48 hours, read-out: IC50 (48 hours) MOLT-4. It is filed as cell-based. On the procedure:
as §1

For `Cc1ncsc1-c1ccc([C@H](C)NC(=O)[C@@H]2C[C@@H](O)CN2C(=O)[C@@H](NC(=O)CCCCC(=O)N2CC3(CCN(CC4(C)CCC(c5ccc(Cl)cc5)=C(CN5CCN(c6ccc(C(=O)NS(=O)(=O)c7ccc(N[C@H](CCN8CCOCC8)CSc8ccccc8)c(S(=O)(=O)C(F)(F)F)c7)cc6)CC5)C4)CC3)C2)C(C)(C)C)cc1` (stereo partly drawn) [degrader #30, (2S,4R)-1-((2S)-2-(6-(7-((4′-chloro-4-methyl-6-((4-(4-(((4-(((R)-4-morpholino-1-(phenylthio)butan-2-yl)amino)-3-((trifluoromethyl)sulfonyl)phenyl)sulfonyl)carbamoyl)phenyl)piperazin-1-yl)methyl)-2,3,4,5-tetrahydro-[1,1′-biphenyl]-4-yl)methyl)-2,7-diazaspiro[3.5]nonan-2-yl)-6-oxohexanamido)-3,3-dimethylbutanoyl)-4-hydroxy-N—((S)-1-(4-(4-methylthiazol-5-yl)phenyl)ethyl)pyrrolidine-2-carboxamide], the IC50 (as a rule, the midpoint of a concentration-inhibition curve) in the test with RS4;11 cells is under 50 nM; with MOLT-4 cells it was 50 to 150 nM.
For `Cc1ncsc1-c1ccc([C@H](C)NC(=O)[C@@H]2C[C@@H](O)CN2C(=O)[C@@H](NC(=O)CCCCCC(=O)N2CC3(CCN(CC4(C)CCC(c5ccc(Cl)cc5)=C(CN5CCN(c6ccc(C(=O)NS(=O)(=O)c7ccc(N[C@H](CCN8CCOCC8)CSc8ccccc8)c(S(=O)(=O)C(F)(F)F)c7)cc6)CC5)C4)CC3)C2)C(C)(C)C)cc1` (stereo partly drawn) [degrader #31, (2S,4R)-1-((2S)-2-(7-(7-((4′-chloro-4-methyl-6-((4-(4-(((4-(((R)-4-morpholino-1-(phenylthio)butan-2-yl)amino)-3-((trifluoromethyl)sulfonyl)phenyl)sulfonyl)carbamoyl)phenyl)piperazin-1-yl)methyl)-2,3,4,5-tetrahydro-[1,1′-biphenyl]-4-yl)methyl)-2,7-diazaspiro[3.5]nonan-2-yl)-7-oxoheptanamido)-3,3-dimethylbutanoyl)-4-hydroxy-N—((S)-1-(4-(4-methylthiazol-5-yl)phenyl)ethyl)pyrrolidine-2-carboxamide], in that order: under 50 nM and 50 to 150 nM.
For `Cc1ncsc1-c1ccc([C@H](C)NC(=O)[C@@H]2C[C@@H](O)CN2C(=O)[C@@H](NC(=O)CCCCCCC(=O)N2CC3(CCN(CC4(C)CCC(c5ccc(Cl)cc5)=C(CN5CCN(c6ccc(C(=O)NS(=O)(=O)c7ccc(N[C@H](CCN8CCOCC8)CSc8ccccc8)c(S(=O)(=O)C(F)(F)F)c7)cc6)CC5)C4)CC3)C2)C(C)(C)C)cc1` (stereo partly drawn) [degrader #32, (2S,4R)-1-((2S)-2-(8-(7-((4′-chloro-4-methyl-6-((4-(4-(((4-(((R)-4-morpholino-1-(phenylthio)butan-2-yl)amino)-3-((trifluoromethyl)sulfonyl)phenyl)sulfonyl)carbamoyl)phenyl)piperazin-1-yl)methyl)-2,3,4,5-tetrahydro-[1,1′-biphenyl]-4-yl)methyl)-2,7-diazaspiro[3.5]nonan-2-yl)-8-oxooctanamido)-3,3-dimethylbutanoyl)-4-hydroxy-N—((S)-1-(4-(4-methylthiazol-5-yl)phenyl)ethyl)pyrrolidine-2-carboxamide], the IC50 is under 50 nM in the test on RS4;11 cells and 50 to 150 nM in the test with MOLT-4 cells.
`Cc1ncsc1-c1ccc([C@H](C)NC(=O)[C@@H]2C[C@@H](O)CN2C(=O)[C@@H](NC(=O)CCCCCC(=O)NC2CCN(CC3(C)CCC(c4ccc(Cl)cc4)=C(CN4CCN(c5ccc(C(=O)NS(=O)(=O)c6ccc(N[C@H](CCN7CCOCC7)CSc7ccccc7)c(S(=O)(=O)C(F)(F)F)c6)cc5)CC4)C3)CC2)C(C)(C)C)cc1` (stereo partly drawn) [degrader #37, N1-(1-((4′-chloro-4-methyl-6-((4-(4-(((4-(((R)-4-morpholino-1-(phenylthio)butan-2-yl)amino)-3-((trifluoromethyl)sulfonyl)phenyl)sulfonyl)carbamoyl)phenyl)piperazin-1-yl)methyl)-2,3,4,5-tetrahydro-[1,1′-biphenyl]-4-yl)methyl)piperidin-4-yl)-N7-((S)-1-((2S,4R)-4-hydroxy-2-(((S)-1-(4-(4-methylthiazol-5-yl)phenyl)ethyl)carbamoyl)pyrrolidin-1-yl)-3,3-dimethyl-1-oxobutan-2-yl)heptanediamide]: the IC50 with RS4;11 cells is under 50 nM; in the test on MOLT-4 cells it was 150 to 500 nM.
Taken in the same sequence, the figures for `Cc1ncsc1-c1ccc([C@H](C)NC(=O)[C@@H]2C[C@@H](O)CN2C(=O)[C@@H](NC(=O)CCCCCCC(=O)NC2CCN(CC3(C)CCC(c4ccc(Cl)cc4)=C(CN4CCN(c5ccc(C(=O)NS(=O)(=O)c6ccc(N[C@H](CCN7CCOCC7)CSc7ccccc7)c(S(=O)(=O)C(F)(F)F)c6)cc5)CC4)C3)CC2)C(C)(C)C)cc1` (stereo partly drawn) [degrader #38, N1-(1-((4′-chloro-4-methyl-6-((4-(4-(((4-(((R)-4-morpholino-1-(phenylthio)butan-2-yl)amino)-3-((trifluoromethyl)sulfonyl)phenyl)sulfonyl)carbamoyl)phenyl)piperazin-1-yl)methyl)-2,3,4,5-tetrahydro-[1,1′-biphenyl]-4-yl)methyl)piperidin-4-yl)-N8-((S)-1-((2S,4R)-4-hydroxy-2-(((S)-1-(4-(4-methylthiazol-5-yl)phenyl)ethyl)carbamoyl)pyrrolidin-1-yl)-3,3-dimethyl-1-oxobutan-2-yl)octanediamide] were under 50 nM and 50 to 150 nM.
In the case of `Cc1ncsc1-c1ccc([C@H](C)NC(=O)[C@@H]2C[C@@H](O)CN2C(=O)[C@@H](NC(=O)CC2CCC(CC(=O)N3CCN(CC4(C)CCC(c5ccc(Cl)cc5)=C(CN5CCN(c6ccc(C(=O)NS(=O)(=O)c7ccc(N[C@H](CCN8CCOCC8)CSc8ccccc8)c(S(=O)(=O)C(F)(F)F)c7)cc6)CC5)C4)CC3)CC2)C(C)(C)C)cc1` (some centres unmarked) [degrader #40], the IC50 with RS4;11 cells and in the test with MOLT-4 cells was under 50 nM throughout.
Turning to `Cc1ncsc1-c1ccc([C@H](C)NC(=O)[C@@H]2C[C@@H](O)CN2C(=O)[C@@H](NC(=O)CCCCCCC(=O)N2CCN(C[C@@]3(C)CCC(c4ccc(Cl)cc4)=C(CN4CCN(c5ccc(C(=O)NS(=O)(=O)c6ccc(N[C@H](CCN7CCOCC7)CSc7ccccc7)c(S(=O)(=O)C(F)(F)F)c6)cc5)CC4)C3)CC2)C(C)(C)C)cc1` [degrader #43, (2S,4R)-1-((S)-2-(8-(4-(((S)-4′-chloro-4-methyl-6-((4-(4-(((4-(((R)-4-morpholino-1-(phenylthio)butan-2-yl)amino)-3-((trifluoromethyl)sulfonyl)phenyl)sulfonyl)carbamoyl)phenyl)piperazin-1-yl)methyl)-2,3,4,5-tetrahydro-[1,1′-biphenyl]-4-yl)methyl)piperazin-1-yl)-8-oxooctanamido)-3,3-dimethylbutanoyl)-4-hydroxy-N—((S)-1-(4-(4-methylthiazol-5-yl)phenyl)ethyl)pyrrolidine-2-carboxamide], the IC50 lay within 150 to 500 nM in the test with RS4;11 cells and 50 to 150 nM with MOLT-4 cells.
